According to patent US6979545B2, “Method for determining chemical reactivity” (Pharmacia & Upjohn Company, priority 2000, dated 2005):
Like-named read-outs stand apart in the source and are kept apart here.

Key:
[1] = GSH reactivity screen (mercury orange fluorescence, 96-well); type: physicochemical; details: for potential reactivity using the GSH reactivity screen: residual GSH by HgO fluorescence, electrophile criterion e.g. <20% GSH remaining
Experimental: The test compounds as listed in Table 2 to be screened are dissolved in dimethyl sulfoxide (DMSO) to a final concentration of 10 mM, and 2 μL is transferred to the wells of a polypropylene 96-well microtiter plate. […] Mercury orange (HgO) stock solution (470 μM) is prepared in acetone and stored at 4° C. […] A 48 μL aliquot of the GSH working solution is pipetted into the 96-well tray containing the test compounds to yield a final concentration of 200 μM GSH. The reaction of the test compound with the GSH is allowed to proceed for 1 h at room temperature after which time an aliquot of HgO is added to each reaction well to yield a final concentration of 50 μM GSH/HgO. […] Assay linearity is investigated by preparing a GSH standard curve in the concentration range 0 to 50 μM (final concentration). Routine sample analysis is achieved using a Biomek 2000 biorobotic system configured with six 96-well plates and 2 reagent reservoirs.
Compounds are then identified as elelctrophiles based upon a predetermined criteria of GSH consumption (e.g., <20% GSH remaining).

[2] = fluorescein-5-maleimide (FM)/GSH competition fluorescence test; type: physicochemical; details: for level of fluorescence, visual observation of the cuvette: compared to a standard without the compound for screening; for electrophilic properties (conclusion): from FM/GSH fluorescence
Experimental: A small aliquot of fluroescein-5-maleimide (FM) in dimethyl sulfoxide (DMSO) is added to a fluorometric cuvette containing 2 ml of phosphate buffered saline at a pH of 7.40. A test compound for screening in DMSO is added to the cuvette, as is a small aliquot of GSH solution. The mixture is exposed to light at 490 nm and emission is observed through a 530 nm bandpass filter. The color of the resulting mixture is observed and the amount of fluorescence is measured.

[3] = test compound with 200 μM GSH, 1 h at room temperature, no metabolic activation, no glutathione transferase
[4] = test compound with 200 μM GSH, 1 h at room temperature
[5] = phosphate buffered saline pH 7.40, excitation 490 nm, emission 530 nm

## O=C(O)Cc1ccccc1Nc1c(Cl)cccc1Cl [Diclofenac]
[1]; [3]
  result in the GSH screen (in words): non-reactive

## O=C1C=C(c2ccccc2)C(=O)N1 [Phenylmaleimide]
[1]; [4]
  potential reactivity using the GSH reactivity screen: R
[1]; [3]
  result in the GSH screen (in words): reactive

## CC(=O)Nc1ccc(O)cc1 [acetaminophen]
[1]; [3]
  result in the GSH screen (in words): non-reactive

## O=[N+]([O-])c1ccc(Cl)c([N+](=O)[O-])c1 [1-chloro-2,4-dinitrobenzene]
[1]; [3]
  result in the GSH screen (in words): non-reactive

## COc1ccc(O)c(C(C)(C)C)c1 [Butylated hydroxyanisole]
[1]; [3]
  result in the GSH screen (in words): non-reactive

## Nc1ccc(Cl)c([N+](=O)[O-])c1 [4-chloro-3-nitroaniline]
[1]; [3]
  result in the GSH screen (in words): non-reactive

## O=[N+]([O-])c1csc(Br)n1 [2-Bromo-4-nitrothiazole]
[1]; [4]
  potential reactivity using the GSH reactivity screen: R
[1]; [3]
  result in the GSH screen (in words): reactive

## Cc1ccccc1 [Toluene]
[1]; [3]
  result in the GSH screen (in words): non-reactive

## O=C1NC(=O)C(c2ccccc2)(c2ccccc2)N1 [Phenytoin]
[1]; [3]
  result in the GSH screen (in words): non-reactive

## COc1ccc(Cl)c([N+](=O)[O-])c1 [4-chloro-3-nitroanisole]
[1]; [3]
  result in the GSH screen (in words): non-reactive

## O=[N+]([O-])c1ccc(Cl)cc1 [1-Chloro-4-nitrobenzene]
[1]
  result in the GSH screen (in words): non-reactive

## c1ccccc1 [Benzene]
[1]; [3]
  result in the GSH screen (in words): non-reactive

## Cc1cc(C(C)(C)C)c(O)c(C(C)(C)C)c1 [Butylated hydroxytoluene]
[1]; [3]
  result in the GSH screen (in words): non-reactive

## CC(=O)NC1=C(Cl)C(=O)c2ccccc2C1=O
[2]
  level of fluorescence, visual observation of the cuvette: appreciably reduced
  electrophilic properties (conclusion): having electrophilic properties
[2]; [5]
  reactivity of this compound toward GSH as compared to the FM standard (in words): slightly greater

## N#Cc1ccc(Cl)cc1 [4-Chlorobenzonitrile]
[1]
  result in the GSH screen (in words): non-reactive

## C/C=C/C=O [trans Crotonaldehyde]
[1]; [4]
  potential reactivity using the GSH reactivity screen: R
[1]; [3]
  result in the GSH screen (in words): reactive

## ClC(Cl)Cl [Chloroform]
[1]
  result in the GSH screen (in words): non-reactive

## N#Cc1ccc(Cl)c([N+](=O)[O-])c1 [4-chloro-3-nitrobenzonitrile]
[1]; [3]
  result in the GSH screen (in words): non-reactive

## O=[N+]([O-])c1cc(O)ccc1Cl [4-chloro-3-nitrophenol]
[1]; [3]
  result in the GSH screen (in words): non-reactive

## CC/C(=C(\c1ccccc1)c1ccc(OCCN(C)C)cc1)c1ccccc1 [Tamoxifen]
[1]; [3]
  result in the GSH screen (in words): non-reactive

## O=C(CCCN1CCC(O)(c2ccc(Cl)cc2)CC1)c1ccc(F)cc1 [Haloperidol]
[1]; [3]
  result in the GSH screen (in words): non-reactive

## O=C1C=CC(=O)N1c1cccc(C(F)(F)F)c1
[2]
  level of fluorescence, visual observation of the cuvette: does not appreciably change
  electrophilic properties (conclusion): not having electrophilic properties
[2]; [5]
  reactivity of this compound toward GSH as compared to the FM standard: 2.95 times less
